# Data taken from ChEMBL document CHEMBL1157539, “Thousands of chemical starting points for antimalarial lead identification” (Nature, 2010).
# System: Plasmodium falciparum
# Test: GSK_TCMDC: Inhibition of Plasmodium falciparum 3D7 in whole erythrocytes, using parasite LDH activity as an index of growth.
# Type: functional, organism-based
# Settings: Plasmodium falciparum, 3D7
row,Compound,XC50
1,OC(CNCc1ccccc1OC(F)F)c1cccc(C(F)(F)F)c1 (stereo not given),0.765 µM
2,Cc1cccc2nc(-c3ccc(-c4cccc(CN5CCN(CC6CCCN(C)C6)CC5)c4)s3)[nH]c12 (stereo not given),0.121 µM
3,CSc1nccc(-c2ccc3ccnc(N)c3c2)n1,0.925 µM
4,CC(C)CCNCc1ccc(OCc2cccc(C(=O)Nc3ccccc3)c2)c(I)c1,0.288 µM
5,CN1CCC(Oc2ccc(CN3CC[C@H](NC(=O)c4cc(F)cc(F)c4)C3)c3ccccc23)C1 (stereo not given in full),0.841 µM
6,Cc1[nH]c2ccccc2c1C1=CCN(CC2CC2C(=O)c2ccccc2)CC1 (stereo not given),0.349 µM
7,O=C(Nc1ccc(OC2CCN(Cc3ccc(F)cc3)CC2)c(Cl)c1)c1ccsc1,0.717 µM
8,Cc1ccc(C2(O)CC3CCC(C2)N3C)cc1 (stereo not given),0.611 µM
9,Cc1cc(N2CCOCC2)nc2ccc(NC(=O)c3ccc(Cl)c([N+](=O)[O-])c3)cc12,1.03 µM
10,CCC(CO)NCC(O)Cn1c2ccc(Br)cc2c2cc(Br)ccc21 (stereo not given),0.783 µM
11,CCCCN(CCCC)/C(=N/c1cccc(Cl)c1Cl)Nc1ccc(C#N)cc1O,0.853 µM
12,O=C(NC1CCN(Cc2ccccc2)CC1)c1cc(-c2ccncc2)nc2ccc(Cl)cc12,0.92 µM
13,CCC(C)c1ccc(-n2c(Nc3ccccc3)nc3cc(S(N)(=O)=O)ccc32)cc1 (stereo not given),1.06 µM
14,O=c1ccc2ccc(F)c3c2n1CC3CN1CCC(NCc2cccc(-c3cccs3)c2)CC1 (stereo not given),0.834 µM
15,O=C(Nc1ccc(N2CCC(Nc3ccccn3)CC2)cc1)c1cnc(Cl)c(Cl)c1,1.19 µM
16,CC(=O)c1cc(N2CCCC2)ccc1N,0.0155 µM
17,CCc1sc(CN(CCCNc2cc(=O)c3ccccc3[nH]2)Cc2sc(CC)c(Br)c2-c2ccsc2)c(-c2ccsc2)c1Br,0.0946 µM
18,Fc1cccc(COc2ccc(Nc3ncnc4ccc(-c5nnc(C(F)(F)F)o5)cc34)cc2Cl)c1,0.579 µM
19,COc1ccc(Cl)cc1N1CCN(CCCNC(=O)c2ccc(-c3nc4cc(Cl)c(F)cc4[nH]3)cc2)CC1,1.06 µM
20,CNc1ccc(CNCc2cccc(-c3ccc(-c4nc5ccccc5[nH]4)cc3)c2)cc1,0.3 µM

row,Compound,XC50
1,Cc1[nH]c(C)c(-c2ccc(-c3ccc(Cl)cc3)nc2)c(=O)c1Br,0.113 µM
2,OC1(CNCc2ccccc2)CCN(CCc2c[nH]c3ccc(F)cc23)CC1,0.71 µM
3,CN1CCN(CCCN(Cc2ccc(-c3ccc(CNC4CCCC4)cc3)cc2)C(=O)CCC2CCCC2)CC1,0.886 µM
4,CCN(CC)CCNC(=O)c1ccc(NC(=O)c2cn(-c3ccccc3)nc2-c2cccs2)cc1,0.258 µM
5,COc1ccc(OC)c(-c2ccc(=O)n(CC(=O)Nc3cccc4ccccc34)n2)c1,0.901 µM
6,N#Cc1ccc(N2CCN(Cc3cccc(-c4cccc(-c5nc6cc(C(F)(F)F)ccc6[nH]5)c4)c3)CC2)nc1,0.962 µM
7,COCCCNc1sc(S(=O)(=O)c2ccccc2)nc1S(=O)(=O)c1ccc(C)cc1,0.802 µM
8,CC1(C)NC(N)=NC(=N)N1OCCc1cccc2ccccc12,0.0032 µM
9,CCC[C@@H]1CCN[C@H]([C@H](O)c2ccnc3ccc(OC)cc23)C1,0.726 µM
10,O=C(Nc1cccc(CN2CCCN(Cc3ccc4c(c3)OCO4)CC2)c1)c1ccc(-c2ccccc2)cc1,0.652 µM
11,Cc1cc(Nc2ccccc2)nc(Nc2ccccc2)n1,0.799 µM
12,O=C(/C=C/c1ccc2ccccc2c1)NCCCCCN1CCC(c2c[nH]c3ccccc23)CC1,1.23 µM
13,O=C(c1ccco1)c1cn(CCOc2ccccc2)c2ccccc12,0.748 µM
14,Cc1ccc(O)c(Nc2c3c(c(C#N)c4nc5ccccc5n24)CCC3)c1,1.25 µM
15,CN1CCN(Cc2cccc(-c3ccc4c(Nc5ccc(F)cc5Cl)ccnc4c3)c2)CC1,0.156 µM
16,CC[C@H]1CN2CC[C@@H]1C[C@H]2[C@H](O)c1cc(N2CCC(C)CC2)nc2ccc(OC)cc12,0.172 µM
17,CCCCCCCN1CC[C@@H](CCCc2ccnc3ccc(OCCN4CCOCC4)cc23)[C@@H](CC)C1,0.909 µM
18,COc1ccc2nccc([C@@H](O)CN3CCC(NC(=O)c4nc(Cl)c(Cl)c(N)c4Cl)CC3)c2c1,1.3 µM
19,COc1cc(F)c2ncc(C#N)c(CCN3CCC(NCc4ccc5c(c4)OCCO5)CC3)c2c1,0.428 µM
20,N#Cc1ccc2[nH]cc(-c3cn4cc(SC5CCCC5)ccc4n3)c2c1,0.942 µM
